# Test results taken from patent publication US5741811A, “Polythiophene anti-tumor agents” (Purdue Research Foundation, priority 1996, dated 1998).
# What was measured:
# SN12C renal cancer cells = test: NCI human tumor cell line panel growth inhibition; assay type: cell-based; conditions: read-out: Log10 GI50 (converted)
# U251 CNS cancer cells = test: NCI human tumor cell line panel growth inhibition; assay type: cell-based; conditions: Homo sapiens, U-251, read-out: Log10 GI50 (converted)
# TK-10 renal cancer cells = test: NCI human tumor cell line panel growth inhibition; assay type: cell-based; conditions: Homo sapiens, read-out: Log10 GI50 (converted)
# [1] = test system: NCI-H522 lung cancer cells; test: NCI human tumor cell line panel growth inhibition; assay type: cell-based; conditions: read-out: Log10 GI50 (converted)
# M-14 melanoma cells = test: NCI human tumor cell line panel growth inhibition; assay type: cell-based; conditions: M14, read-out: Log10 GI50 (converted)
# [2] = test system: T-47D breast cancer cells; test: NCI human tumor cell line panel growth inhibition; assay type: cell-based; conditions: T47D, read-out: Log10 GI50 (converted)
# Protocol: The assay was carried out in 96-well microtiter plates. The MTT assay is based on the production of a dark blue formazan product by dehydrogenase in the mitochondria of live tumor cells after exposure to drug for 6 days [M. C. […] The SRB assay is based on the binding of the anionic group to the basic amino acid residues of cellular proteins after exposure of tumor cells to drug for 2 days [P. Skehan, R. Storeng, D. Scudiero, A. Monks, J. McMahon, D. Vistica, J. T. Warren, H. Bohesch, S. Kenney and M. R. Boyd, J. Nat.
# [3] = test system: RXF-393 renal cancer cells; test: NCI human tumor cell line panel growth inhibition; assay type: cell-based; conditions: Homo sapiens, read-out: Log10 GI50 (converted)
# [4] = test system: NCI-H460 lung cancer cells; test: NCI human tumor cell line panel growth inhibition; assay type: cell-based; conditions: Homo sapiens, read-out: Log10 GI50 (converted)
# [5] = test system: BT-549 breast cancer cells; test: NCI human tumor cell line panel growth inhibition; assay type: cell-based; conditions: read-out: Log10 GI50 (converted)
# Text: (§1) The cytotoxic activity of the present polythiophene compounds have been measured utilizing three different assays or screens. The first screen measures the cytotoxicity against a panel of sixty different human tumor cell lines. This assay provides data regarding the general cytotoxicity of an individual compound. In particular this type of assay is useful in identifying compounds which have enhanced cytotoxic activity against slow growing tumors as compared to faster growing tumor cells such as leukemia tumor cell lines. The identification of such compounds is critical since previously identified antitumor agents have low cytotoxic activity against slower growing tumors. […] The specificity of a cytotoxic compound for tumor cell lines relative to normal cells is an important characteristic of an effective antitumor agent.
# (§2) The length of a bar is indicative of differential cytotoxicity against a specific type of tumor cells or tumor panels.
# (§3) The antitumor cytotoxicity of the thiophene compounds tested in the first two in vitro assays was measured by a microculture assay using either 3-(4,5-dimethylthiazol-2-yl)-2,5-diphenyltetrazolium bromide (MTT) or sulforhodamine B (SRB). [M. R. Boyd in "Principles and Practices of Oncology," V. T. DeVita, Jr., S. Hellman and S. A. Rosenberg (Eds.), Vol. 3, PPO Updates, Number 10, 1989.] This assay has an advantage over in vivo assay in that results are obtained within a week as opposed to several months. The assay was carried out in 96-well microtiter plates. The MTT assay is based on the production of a dark blue formazan product by dehydrogenase in the mitochondria of live tumor cells after exposure to drug for 6 days [M. C. Alley, D. A. Scudiero, A. Monks, M. L. Hursey, M. J. Czerwinski, D. L. Fine, B. J. Abbott, J. G. Mayo, R. H. Shoemaker and M. R. Boyd, Cancer Res., 48, 589, 1988.] Thus, only live cells are stained and can be measured at 570 nm. The SRB assay is based on the binding of the anionic group to the basic amino acid residues of cellular proteins after exposure of tumor cells to drug for 2 days [P. Skehan, R. Storeng, D. Scudiero, A. Monks, J. McMahon, D. Vistica, J. T. Warren, H. Bohesch, S. Kenney and M. R. Boyd, J. Nat. Cancer Inst., 82, 1107, 1990.] Thus, the total protein (viability) can be measured at 564 nm.
# [6] = test system: PC-3 prostate cancer cells; test: NCI human tumor cell line panel growth inhibition; assay type: cell-based; conditions: read-out: Log10 GI50 (converted)
# Text: as §1, §2, §3
# [7] = test system: MDA-N breast cancer cells; test: NCI human tumor cell line panel growth inhibition; assay type: cell-based; conditions: read-out: Log10 GI50 (converted)
# Text: as §1, §2, §3
# KM12 colon cancer cells = test: NCI human tumor cell line panel growth inhibition; assay type: cell-based; conditions: Homo sapiens, read-out: Log10 GI50 (converted)
# Text: as §1, §2, §3
# SK-MEL-28 melanoma cells = test: NCI human tumor cell line panel growth inhibition; assay type: cell-based; conditions: read-out: Log10 GI50 (converted)
# Text: as §1, §2, §3
# [8] = test system: HS 578T breast cancer cells; test: NCI human tumor cell line panel growth inhibition; assay type: cell-based; conditions: read-out: Log10 GI50 (converted)
# Text: as §1, §2, §3
# [9] = test system: MDA-MB-435 breast cancer cells; test: NCI human tumor cell line panel growth inhibition; assay type: cell-based; conditions: read-out: Log10 GI50 (converted)
# Text: as §1, §2, §3
# [10] = test system: DU-145 prostate cancer cells; test: NCI human tumor cell line panel growth inhibition; assay type: cell-based; conditions: read-out: Log10 GI50 (converted)
# Text: as §1, §2, §3
# MCF7 breast cancer cells = test: NCI human tumor cell line panel growth inhibition; assay type: cell-based; conditions: read-out: Log10 GI50 (converted)
# Text: as §1, §2, §3
# SK-MEL-5 melanoma cells = test: NCI human tumor cell line panel growth inhibition; assay type: cell-based; conditions: read-out: Log10 GI50 (converted)
# Text: as §1, §2, §3
# [11] = test system: MCF7/ADR-RES breast cancer cells; test: NCI human tumor cell line panel growth inhibition; assay type: cell-based; conditions: read-out: Log10 GI50 (converted)
# Text: as §1, §2, §3
# [12] = test system: NCI-H226 lung cancer cells; test: NCI human tumor cell line panel growth inhibition; assay type: cell-based; conditions: Homo sapiens, read-out: Log10 GI50 (converted)
# [13] = test system: HCT-15 colon cancer cells; test: NCI human tumor cell line panel growth inhibition; assay type: cell-based; conditions: Homo sapiens, read-out: Log10 GI50 (converted)
# HOP-62 lung cancer cells = test: NCI human tumor cell line panel growth inhibition; assay type: cell-based; conditions: Homo sapiens, read-out: Log10 GI50 (converted)
# SF-295 CNS cancer cells = test: NCI human tumor cell line panel growth inhibition; assay type: cell-based; conditions: read-out: Log10 GI50 (converted)
# [14] = test system: IGROV-1 ovarian cancer cells; test: NCI human tumor cell line panel growth inhibition; assay type: cell-based; conditions: Homo sapiens, read-out: Log10 GI50 (converted)
# [15] = test system: OVCAR-8 ovarian cancer cells; test: NCI human tumor cell line panel growth inhibition; assay type: cell-based; conditions: Homo sapiens, read-out: Log10 GI50 (converted)
# Protocol: (§4) The first screen measures the cytotoxicity against a panel of sixty different human tumor cell lines. This assay provides data regarding the general cytotoxicity of an individual compound.
# as §2, §3
# [16] = test system: SW-620 colon cancer cells; test: NCI human tumor cell line panel growth inhibition; assay type: cell-based; conditions: Homo sapiens, read-out: Log10 GI50 (converted)
# Protocol: as §4, §2, §3
# [17] = test system: NCI-H23 lung cancer cells; test: NCI human tumor cell line panel growth inhibition; assay type: cell-based; conditions: read-out: Log10 GI50 (converted)
# [18] = test system: HCC-2998 colon cancer cells; test: NCI human tumor cell line panel growth inhibition; assay type: cell-based; conditions: Homo sapiens, read-out: Log10 GI50 (converted)
# HT29 colon cancer cells = test: NCI human tumor cell line panel growth inhibition; assay type: cell-based; conditions: Homo sapiens, HT-29, read-out: Log10 GI50 (converted)
# ACHN renal cancer cells = test: NCI human tumor cell line panel growth inhibition; assay type: cell-based; conditions: read-out: Log10 GI50 (converted)
# [19] = test system: COLO-205 colon cancer cells; test: NCI human tumor cell line panel growth inhibition; assay type: cell-based; conditions: Homo sapiens; COLO-205, colon cancer; read-out: Log10 GI50 (converted)
# 786-0 renal cancer cells = test: NCI human tumor cell line panel growth inhibition; assay type: cell-based; conditions: read-out: Log10 GI50 (converted)
# UO-31 renal cancer cells = test: NCI human tumor cell line panel growth inhibition; assay type: cell-based; conditions: read-out: Log10 GI50 (converted)
# MALME-3M melanoma cells = test: NCI human tumor cell line panel growth inhibition; assay type: cell-based; conditions: read-out: Log10 GI50 (converted)
# [20] = water
smiles,measurement,setting,value
OCc1cc(-c2ccc(-c3cccs3)s2)sc1CO,GI50,SN12C renal cancer cells,46.8 µM
same,GI50,U251 CNS cancer cells,69.2 µM
same,GI50,TK-10 renal cancer cells,20.9 µM
same,GI50,[1],33.9 µM
same,GI50,M-14 melanoma cells,51.3 µM
same,GI50,[2],0.427 µM
same,GI50,[3],8.71 µM
same,GI50,[4],5.62 µM
same,GI50,[5],83.2 µM
same,GI50,[6],49 µM
same,GI50,[7],5.37 µM
same,GI50,KM12 colon cancer cells,16.6 µM
same,GI50,SK-MEL-28 melanoma cells,39.8 µM
same,GI50,[8],52.5 µM
same,GI50,[9],15.1 µM
same,GI50,[10],55 µM
same,GI50,MCF7 breast cancer cells,0.178 µM
same,GI50,SK-MEL-5 melanoma cells,> 10 µM
same,GI50,[11],57.5 µM
same,GI50,[12],0.257 µM
same,GI50,[13],28.2 µM
same,GI50,HOP-62 lung cancer cells,20 µM
same,GI50,SF-295 CNS cancer cells,33.9 µM
same,GI50,[14],0.229 µM
same,GI50,[15],50.1 µM
same,GI50,[16],40.7 µM
same,GI50,[17],38.9 µM
same,GI50,[18],0.316 µM
same,GI50,HT29 colon cancer cells,18.6 µM
same,GI50,ACHN renal cancer cells,56.2 µM
same,GI50,[19],5.89 µM
same,GI50,786-0 renal cancer cells,52.5 µM
same,GI50,UO-31 renal cancer cells,64.6 µM
same,GI50,MALME-3M melanoma cells,29.5 µM
"NCc1ccc(-c2ccc(-c3cccs3)s2)s1 [NSC Code 652866, aminomethylterthiophene]",aminomethylterthiophene dissolved by 1 mL of H2O (as cyclodextrin complex),[20],up to 77 mg
